From ChEMBL document CHEMBL5505991, “Novel sulfonamide-indolinone hybrids targeting mitochondrial respiration of breast cancer cells” (Eur J Med Chem, 2024)
The source made the active and inactive calls. The rule behind the calls is not given here.

Legend:
MDA-MB-468 [1] = assay: Antiproliferative activity against human MDA-MB-468 cells assessed as cell growth at 10 uM incubated for 72 hrs by SRB assay relative to control; format: functional; details: read-out: Activity
Aurora kinase B [2] = target: T1, Aurora kinase B (Homo sapiens, UniProt Q96GD4); assay: Inhibition of Aurora B (unknown origin) at 100 nM by Z-LYTE assay relative to control
MCF7 [3] = assay: Antiproliferative activity against human MCF7 cells assessed as cell growth at 10 uM incubated for 72 hrs by SRB assay relative to control; format: functional; details: read-out: Activity
T47D [4] = assay: Antiproliferative activity against human T47D cells assessed as cell growth at 10 uM incubated for 72 hrs by SRB assay relative to control; format: functional; details: read-out: Activity
Aurora kinase B [5] = target: T1, Aurora kinase B; assay: Inhibition of Aurora B (unknown origin)
MDA-MB-468 [6] = assay: Growth inhibition of human MDA-MB-468 cells incubated for 72 hrs by SRB assay; format: functional
MCF7 [7] = assay: Growth inhibition of human MCF7 cells incubated for 72 hrs by SRB assay; format: functional
T47D [8] = assay: Growth inhibition of human T47D cells incubated for 72 hrs by SRB assay; format: functional
Aurora kinase B [9] = target: T1, Aurora kinase B; assay: Inhibition of Aurora B (unknown origin) at 100 nM relative to control
Aurora kinase B [10] = target: T1, Aurora kinase B; assay: Binding affinity to Aurora B (unknown origin) assessed as inhibition constant
MCF7 [11] = assay: Inhibition of mitochondrial respiration in human MCF7 cells assessed as reduction in oxygen consumption rate at 20 uM incubated for 15 mins; format: functional, cell-based
H9c2 = assay: Cytotoxicity against rat H9c2 cells at upto 100 uM measured after 72 hrs by SRB assay; format: toxicity, cell-based; details: h9c2, 72 h
MCF7 [12] = assay: Inhibition of mitochondrial induced ROS production in human MCF7 cells assessed as reduction in H2O2 production rate at 20 uM incubated for 15 mins in presence of complex II by Amplex ultra red and horseradish peroxidase based fluorescence assay; format: functional, cell-based
MCF7 [13] = assay: Inhibition of mitochondrial respiration in human MCF7 cells assessed as reduction in oxygen consumption rate at 20 uM incubated for 15 mins in presence of complex II; format: functional, cell-based
MCF7 [14] = assay: Inhibition of mitochondrial respiration in human MCF7 cells assessed as reduction in oxygen consumption rate at 20 uM incubated for 15 mins in presence of complex IV; format: functional, cell-based
MCF7 [15] = assay: Induction of cell cycle arrest in human MCF7 cells assessed as accumulation of cells at G0/G1 phase at 5 to 7 uM measured after 24 hrs by PI staining based flow cytometry analysis; format: functional; details: dose 5-7 µM
MCF7 [16] = assay: Inhibition of mitochondrial respiration in human MCF7 cells assessed as reduction in oxygen consumption rate at 20 uM incubated for 15 mins in presence of complex I; format: functional, cell-based
BNL = assay: Cytotoxicity against mouse BNL cells at upto 100 uM measured after 72 hrs by SRB assay; format: toxicity, cell-based

T1 sequence (Q96GD4 whole entry): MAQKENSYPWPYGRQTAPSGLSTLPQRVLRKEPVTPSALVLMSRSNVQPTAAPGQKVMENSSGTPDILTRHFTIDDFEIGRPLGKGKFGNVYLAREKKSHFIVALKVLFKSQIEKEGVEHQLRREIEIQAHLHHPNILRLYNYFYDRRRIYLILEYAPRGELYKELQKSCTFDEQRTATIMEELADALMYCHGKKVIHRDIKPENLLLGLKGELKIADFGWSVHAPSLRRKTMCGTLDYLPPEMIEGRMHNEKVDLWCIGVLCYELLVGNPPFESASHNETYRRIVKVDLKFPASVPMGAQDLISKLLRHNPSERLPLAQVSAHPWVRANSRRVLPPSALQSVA

Compound	inhibition (Aurora kinase B [2])	GI50 (MDA-MB-468 [6])	GI50 (MCF7 [7])	GI50 (T47D [8])	growth at 10 µM (MDA-MB-468 [1])	growth at 10 µM (MCF7 [3])	growth at 10 µM (T47D [4])	further results
O=C1Nc2cc(-c3ccc(NS(=O)(=O)c4cccc(Cl)c4)cc3)ccc2/C1=C/c1ccc[nH]1	43%				-29.3%	-6.08%	12.1%	
O=C(Nc1ccc(-c2ccc3c(c2)NC(=O)/C3=C\c2ccc[nH]2)cc1)NC1CC1								IC50 (Aurora kinase B [5]): 10.5 nM
O=C1Nc2cc(-c3ccc(NS(=O)(=O)c4cccc(Br)c4)cc3)ccc2/C1=C/c1ccc[nH]1	38%	28.6 nM	30.2 nM	41.7 nM	-44%	-18.4%	15.6%	
O=C1Nc2cc(-c3ccc(NS(=O)(=O)c4ccc5ccccc5c4)cc3)ccc2/C1=C/c1ccc[nH]1	20%	25.4 nM	33.6 nM	47.1 nM	-80.8%	-51.9%	-16.7%	
O=C1Nc2cc(-c3ccc(NS(=O)(=O)c4ccc(C(F)(F)F)cc4)cc3)ccc2/C1=C/c1ccc[nH]1	18%	31.1 nM	81.8 nM	230 nM	-26.2%	0.78%	18.1%	
O=C1Nc2cc(-c3ccc(NS(=O)(=O)c4ccc(Br)cc4)cc3)ccc2/C1=C/c1ccc[nH]1	32%	25.4 nM	31.6 nM	61.3 nM	-66.9%	-77.4%	9.33%	
O=C1Nc2cc(-c3ccc(NS(=O)(=O)c4ccccc4)cc3)ccc2/C1=C/c1ccc[nH]1								inhibition (Aurora kinase B [9]): 66%
O=C1Nc2cc(-c3ccc(NS(=O)(=O)c4ccc([N+](=O)[O-])cc4)cc3)ccc2/C1=C/c1ccc[nH]1	49%	778 nM	1730 nM	4770 nM	-29.6%	-23.6%	15.9%	
Cc1ccc(S(=O)(=O)Nc2ccc(-c3ccc4c(c3)NC(=O)/C4=C\c3ccc[nH]3)cc2)cc1	23%				-25.8%	3.35%	18.8%	
O=C1Nc2cc(-c3ccc(O)cc3)ccc2/C1=C/c1ccc[nH]1								Ki (Aurora kinase B [10]): 19.9 nM
CCN(CC)CCNC(=O)c1c(C)[nH]c(/C=C2\C(=O)Nc3cc(-c4ccc(NS(=O)(=O)c5ccc(F)c(Cl)c5)cc4)ccc32)c1C	90%				-90.5%	-85.2%	-49.1%	inhibition (MCF7 [11]): Active; Activity (H9c2): Non-Toxic; inhibition (MCF7 [12]): Active; inhibition (MCF7 [13]): Active; inhibition (MCF7 [14]): inactive; Activity (MCF7 [15]): Active; inhibition (MCF7 [16]): Active; Activity (BNL): Non-Toxic

The next lines start with results.

inhibition (Aurora kinase B [2])	GI50 (MDA-MB-468 [6])	GI50 (MCF7 [7])	GI50 (T47D [8])	Compound	growth at 10 µM (MDA-MB-468 [1])	growth at 10 µM (MCF7 [3])	growth at 10 µM (T47D [4])	further results
20%	40.2 nM	74.6 nM	136 nM	O=C1Nc2cc(-c3ccc(NS(=O)(=O)c4ccc(-c5ccccc5)cc4)cc3)ccc2/C1=C/c1ccc[nH]1	-52.5%	-25.2%	3.17%	
46%				CC(=O)Nc1ccc(S(=O)(=O)Nc2ccc(-c3ccc4c(c3)NC(=O)/C4=C\c3ccc[nH]3)cc2)cc1	-7.1%	14.3%	20.7%	
33%	30.9 nM	47.7 nM	28.5 nM	COc1ccc(S(=O)(=O)Nc2ccc(-c3ccc4c(c3)NC(=O)/C4=C\c3ccc[nH]3)cc2)cc1OC	-56.2%	-39%	-21%	
53%				Cc1[nH]c(/C=C2\C(=O)Nc3cc(-c4ccc(NS(=O)(=O)c5ccc(F)c(Cl)c5)cc4)ccc32)c(C)c1NS(C)(=O)=O	8.19%	4.18%	17.9%	
